This is an account of results in PubChem BioAssay AID248 (DTP/NCI, 2004).

Values joined by “and” are separate entries in the source; they are usually repeats but may differ in a detail not shown here. Equal entries are not always repeated. Toxic doses and inconclusive results are not listed.

The assay deals with L1210 leukemia ip in BDF1 mice, survival T/C. Description: NCI In Vivo Anticancer Drug Screen. Data for tumor model L1210 Leukemia (intraperitoneal) in B6D2F1 (BDF1) mice. The conditions noted are these: endpoint: mean survival time, higher = longer survival. A digest of the protocol: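 Read-out is survival time, reported as the treated-group measurement over the vehicle-control measurement.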

[1] abbreviates: dose: 100.0 mg/kg/injection, schedule: Q01DX009 (ip), vehicle: Klucel (hydroxypropylcellulose) (HPC).
Setting [2] is: dose: 200.0 mg/kg/injection, schedule: Q01DX009 (ip), vehicle: Klucel (hydroxypropylcellulose) (HPC).
Setting [3] is: dose: 100.0 mg/kg/injection, schedule: Q01DX009 (ip), vehicle: saline with Tween-80.
[4] abbreviates: dose: 100.0 mg/kg/injection, schedule: Q04DX003 (ip), vehicle: saline with Tween-80.
The mark [5] stands for this setting: dose: 200.0 mg/kg/injection, schedule: Q04DX003 (ip), vehicle: saline with Tween-80.
Setting [6] is: dose: 400.0 mg/kg/injection, schedule: Q04DX003 (ip), vehicle: saline with Tween-80.
Setting [7] is: dose: 100.0 mg/kg/injection, schedule: Q04DX003 (ip), vehicle: Klucel (hydroxypropylcellulose) (HPC).
The mark [8] stands for this setting: dose: 200.0 mg/kg/injection, schedule: Q04DX003 (ip), vehicle: Klucel (hydroxypropylcellulose) (HPC).

As to `CC(=O)OCC(CS(=O)c1c(Cl)c(Cl)c(Cl)c(Cl)c1Cl)OC(C)=O` (centres undefined), the T/C (dose: 25.0 mg/kg/injection, schedule: Q04DX002 (ip), vehicle: Klucel (hydroxypropylcellulose) (HPC)) was 93 % of control; the T/C (dose: 50.0 mg/kg/injection, schedule: Q04DX002 (ip), vehicle: Klucel (hydroxypropylcellulose) (HPC)) is 86 % of control; the T/C (dose: 100.0 mg/kg/injection, schedule: Q04DX002 (ip), vehicle: Klucel (hydroxypropylcellulose) (HPC)) was 106 % of control and 89 % of control; the T/C (dose: 200.0 mg/kg/injection, schedule: Q04DX002 (ip), vehicle: Klucel (hydroxypropylcellulose) (HPC)) was 97 % of control and 124 % of control; the T/C (dose: 400.0 mg/kg/injection, schedule: Q04DX002 (ip), vehicle: Klucel (hydroxypropylcellulose) (HPC)) is 109 % of control.
As for `CC(=O)Nc1ccc(OC(=O)Nc2cc(C(F)(F)F)ccc2Cl)cc1`, the T/C is, setting by setting: under setting [1], 93 % of control; under setting [2], 111 % of control.
Regarding `CC(/C=N/N=C(N(C)C)N(C)C)=N/N=C(N(C)C)N(C)C`, the T/C is, setting by setting: (dose: 15.0 mg/kg/injection, schedule: Q01DX Z (ip), vehicle: methylcellulose (MC)) 94 % of control; (dose: 30.0 mg/kg/injection, schedule: Q01DX Z (ip), vehicle: methylcellulose (MC)) 97 % of control; (dose: 30.0 mg/kg/injection, schedule: Q01DX Z (oral), vehicle: methylcellulose (MC)) 102 % of control; (dose: 60.0 mg/kg/injection, schedule: Q01DX Z (ip), vehicle: methylcellulose (MC)) 97 % of control; (dose: 60.0 mg/kg/injection, schedule: Q01DX Z (oral), vehicle: methylcellulose (MC)) 95 % of control; (dose: 120.0 mg/kg/injection, schedule: Q01DX Z (ip), vehicle: methylcellulose (MC)) 101 % of control.
On to `CCCCNC(C)(C)C(SC(C)=O)c1ccc(Cl)cc1` (centres undefined), for which the T/C under setting [3] is 89 % of control.
Turning to `CC(=O)Oc1oc(-c2ccccc2)nc1-c1ccccc1`, the T/C under setting [3] was 108 % of control; the T/C under setting [4] was 98 % of control; the T/C (dose: 200.0 mg/kg/injection, schedule: Q01DX009 (ip), vehicle: saline with Tween-80) is 94 % of control; the T/C under setting [5] is 100 % of control; the T/C (dose: 400.0 mg/kg/injection, schedule: Q01DX009 (ip), vehicle: saline with Tween-80) is 97 % of control; the T/C under setting [6] was 104 % of control.
For the compound `CCCCCCCCCCCCCCCC(=O)OCCCCCCCCCCCCC`, the T/C by setting is: under setting [4], 95 % of control; under setting [5], 90 % of control; under setting [6], 86 % of control.
As for `O=P(Cc1ccccc1)(Cc1ccccc1)c1ccccc1`, the T/C runs as follows: (dose: 25.0 mg/kg/injection, schedule: Q04DX003 (ip), vehicle: Klucel (hydroxypropylcellulose) (HPC)) 102 % of control; (dose: 50.0 mg/kg/injection, schedule: Q04DX003 (ip), vehicle: Klucel (hydroxypropylcellulose) (HPC)) 118 % of control; under setting [7], 95 % of control and 104 % of control.
With `CCSSCC(NC(=O)OC(C)(C)C)C(=O)O` (centres undefined), the T/C by setting is: (dose: 50.0 mg/kg/injection, schedule: Q04DX003 (ip), vehicle: other) 97 % of control; (dose: 100.0 mg/kg/injection, schedule: Q01DX001 (ip), vehicle: other) 101 % of control; (dose: 100.0 mg/kg/injection, schedule: Q04DX003 (ip), vehicle: other) 94 % of control; (dose: 200.0 mg/kg/injection, schedule: Q01DX001 (ip), vehicle: other) 97 % of control; (dose: 200.0 mg/kg/injection, schedule: Q04DX003 (ip), vehicle: other) 97 % of control.
With `CCCCCN(CCCCC)C(=O)c1ccc([N+](=O)[O-])cc1`, the T/C by setting is: under setting [1], 97 % of control; under setting [7], 100 % of control; under setting [2], 97 % of control; under setting [8], 96 % of control; (dose: 400.0 mg/kg/injection, schedule: Q01DX009 (ip), vehicle: Klucel (hydroxypropylcellulose) (HPC)) 94 % of control; (dose: 400.0 mg/kg/injection, schedule: Q04DX003 (ip), vehicle: Klucel (hydroxypropylcellulose) (HPC)) 105 % of control.
On to `Cc1cc(Cc2cc(C)cc(C(C)(C)C)c2O)c(O)c(Cc2cc(C)cc(C(C)(C)C)c2O)c1`, for which the T/C runs as follows: (dose: 100.0 mg/kg/injection, schedule: Q01DX009 (ip), vehicle: gum acacia) 97 % of control; (dose: 100.0 mg/kg/injection, schedule: Q04DX003 (ip), vehicle: gum acacia) 91 % of control; (dose: 200.0 mg/kg/injection, schedule: Q01DX009 (ip), vehicle: gum acacia) 96 % of control; (dose: 200.0 mg/kg/injection, schedule: Q04DX003 (ip), vehicle: gum acacia) 96 % of control; (dose: 400.0 mg/kg/injection, schedule: Q01DX009 (ip), vehicle: gum acacia) 94 % of control; (dose: 400.0 mg/kg/injection, schedule: Q04DX003 (ip), vehicle: gum acacia) 96 % of control.
For the compound `N#CC(NC(N)=O)(c1ccccc1)c1ccccc1`, the T/C is 91 % of control (dose: 50.0 mg/kg/injection, schedule: Q01DX001 (ip), vehicle: carboxymethylcellulose (CMC)); 107 % of control (dose: 100.0 mg/kg/injection, schedule: Q01DX001 (ip), vehicle: carboxymethylcellulose (CMC)); 96 % of control (dose: 200.0 mg/kg/injection, schedule: Q01DX001 (ip), vehicle: carboxymethylcellulose (CMC)); 91 % of control (dose: 400.0 mg/kg/injection, schedule: Q01DX001 (ip), vehicle: carboxymethylcellulose (CMC)).
For `Cc1c2oc3c(C)ccc(C(=O)OCCN4CCN(c5ccccc5)CC4)c3nc-2c(C(=O)OCCN2CCN(c3ccccc3)CC2)c(N)c1=O`, the T/C is, setting by setting: (dose: 100.0 mg/kg/injection, schedule: Q04DX002 (ip), vehicle: saline with Tween-80) 92 % of control; (dose: 200.0 mg/kg/injection, schedule: Q04DX002 (ip), vehicle: saline with Tween-80) 103 % of control; (dose: 400.0 mg/kg/injection, schedule: Q04DX002 (ip), vehicle: saline with Tween-80) 103 % of control.
As to `Clc1ccc(NC2=NCCCS2)c2ccccc12`, the T/C was 98 % of control (dose: 25.0 mg/kg/injection, schedule: Q01DX009 (ip), vehicle: Klucel (hydroxypropylcellulose) (HPC)); 102 % of control (dose: 50.0 mg/kg/injection, schedule: Q01DX009 (ip), vehicle: Klucel (hydroxypropylcellulose) (HPC)); 94 % of control and 92 % of control under setting [1]; 97 % of control under setting [7]; 90 % of control under setting [8].
On to `O=P(Oc1ccccc1)(Oc1ccccc1)C(Nc1ccccc1)c1cccnc1` (centres undefined), for which the T/C runs as follows: under setting [4], 89 % of control; under setting [5], 103 % of control.
With `COC1OC(CNC(=O)N(C)N=O)C(O)C(O)C1O` (centres undefined), the T/C was 115 % of control (dose: 100.0 mg/kg/injection, schedule: Q04DX003 (ip), vehicle: saline); 116 % of control (dose: 115.0 mg/kg/injection, schedule: Q04DX003 (ip), vehicle: saline); 120 % of control (dose: 132.0 mg/kg/injection, schedule: Q04DX003 (ip), vehicle: saline); 150 % of control and 170 % of control (dose: 200.0 mg/kg/injection, schedule: Q01DX009 (ip), vehicle: saline); 173 % of control (dose: 300.0 mg/kg/injection, schedule: Q01DX009 (ip), vehicle: saline); 166 % of control (dose: 400.0 mg/kg/injection, schedule: Q01DX009 (ip), vehicle: saline). Moreover, the T/C (dose: 400.0 mg/kg/injection, schedule: Q04DX003 (ip), vehicle: saline) was 150 % of control and 160 % of control.
For `O=C(Nc1cccc([N+](=O)[O-])c1)c1ccc(Cl)c(Cl)c1`, the T/C by setting is: (dose: 25.0 mg/kg/injection, schedule: Q04DX003 (ip), vehicle: saline with Tween-80) 115 % of control; (dose: 50.0 mg/kg/injection, schedule: Q04DX003 (ip), vehicle: saline with Tween-80) 96 % of control; under setting [4], 99 % of control; under setting [5], 86 % of control; (dose: 300.0 mg/kg/injection, schedule: Q04DX003 (ip), vehicle: saline with Tween-80) 86 % of control.
